Experiments:
Assay type in all cases: functional
[1] = Growth inhibition of human NCI-ADR-RES cells at 10 uM after 48 hrs by sulforhodamine B assay; conditions: values are per cent of control
786-0 = assay: Growth inhibition of human 786-0 cells at 10 uM after 48 hrs by sulforhodamine B assay; conditions: 786-0, 48 h, values are per cent of control
SK-MEL-5 = assay: Growth inhibition of human SK-MEL-5 cells at 10 uM after 48 hrs by sulforhodamine B assay; conditions: SK-MEL-5, 48 h, values are per cent of control
[2] = Growth inhibition of human OVCAR8 cells at 10 uM after 48 hrs by sulforhodamine B assay; conditions: OVCAR-8, 48 h, values are per cent of control
[3] = Growth inhibition of human BT549 cells at 10 uM after 48 hrs by sulforhodamine B assay; conditions: BT-549, 48 h, values are per cent of control
[4] = Growth inhibition of human UACC62 cells at 10 uM after 48 hrs by sulforhodamine B assay; conditions: UACC-62, 48 h, values are per cent of control
[5] = Growth inhibition of human COLO205 cells at 10 uM after 48 hrs by sulforhodamine B assay; conditions: COLO 205, 48 h, values are per cent of control
[6] = Growth inhibition of human DU145 cells at 10 uM after 48 hrs by sulforhodamine B assay; conditions: DU-145, 48 h, values are per cent of control
[7] = Growth inhibition of human IGROV1 cells at 10 uM after 48 hrs by sulforhodamine B assay; conditions: IGROV-1, 48 h, values are per cent of control
[8] = Growth inhibition of human Caki1 cells at 10 uM after 48 hrs by sulforhodamine B assay; conditions: CAKI-1, 48 h, values are per cent of control
[9] = Growth inhibition of human LOXIMVI cells at 10 uM after 48 hrs by sulforhodamine B assay; conditions: LOX IMVI, values are per cent of control
NCI-H226 = assay: Growth inhibition of human NCI-H226 cells at 10 uM after 48 hrs by sulforhodamine B assay; conditions: NCI-H226, 48 h, values are per cent of control
[10] = Growth inhibition of human SF539 cells at 10 uM after 48 hrs by sulforhodamine B assay; conditions: SF-539, 48 h, values are per cent of control
SR = assay: Growth inhibition of human SR cells at 10 uM after 48 hrs by sulforhodamine B assay; conditions: values are per cent of control
MDA-MB-435 = assay: Growth inhibition of human MDA-MB-435 cells at 10 uM after 48 hrs by sulforhodamine B assay; conditions: MDA-MB-435, 48 h, values are per cent of control
T47D = assay: Growth inhibition of human T47D cells at 10 uM after 48 hrs by sulforhodamine B assay; conditions: values are per cent of control
NCI-H23 = assay: Growth inhibition of human NCI-H23 cells at 10 uM after 48 hrs by sulforhodamine B assay; conditions: NCI-H23, 48 h, values are per cent of control
NCI-H322M = assay: Growth inhibition of human NCI-H322M cells at 10 uM after 48 hrs by sulforhodamine B assay; conditions: values are per cent of control
[11] = Growth inhibition of human SF268 cells at 10 uM after 48 hrs by sulforhodamine B assay; conditions: SF-268, 48 h, values are per cent of control
[12] = Growth inhibition of human Hs 578T cells at 10 uM after 48 hrs by sulforhodamine B assay; conditions: values are per cent of control
SK-MEL-2 = assay: Growth inhibition of human SK-MEL-2 cells at 10 uM after 48 hrs by sulforhodamine B assay; conditions: SK-MEL-2, 48 h, values are per cent of control
ACHN = assay: Growth inhibition of human ACHN cells at 10 uM after 48 hrs by sulforhodamine B assay; conditions: values are per cent of control
[13] = Growth inhibition of human HOP62 cells at 10 uM after 48 hrs by sulforhodamine B assay; conditions: HOP-62, 48 h, values are per cent of control
U-251 = assay: Growth inhibition of human U251 cells at 10 uM after 48 hrs by sulforhodamine B assay; conditions: U-251, 48 h, values are per cent of control
[14] = Growth inhibition of human OVCAR4 cells at 10 uM after 48 hrs by sulforhodamine B assay; conditions: OVCAR-4, 48 h, values are per cent of control
[15] = Growth inhibition of human SW620 cells at 10 uM after 48 hrs by sulforhodamine B assay; conditions: SW-620, 48 h, values are per cent of control
[16] = Growth inhibition of human HCC2998 cells at 10 uM after 48 hrs by sulforhodamine B assay; conditions: HCC 2998, 48 h, values are per cent of control
MDA-MB-468 = assay: Growth inhibition of human MDA-MB-468 cells at 10 uM after 48 hrs by sulforhodamine B assay; conditions: MDA-MB-468, 48 h, values are per cent of control
A549 = assay: Growth inhibition of human A549/ATCC cells at 10 uM after 48 hrs by sulforhodamine B assay; conditions: A549, 48 h, values are per cent of control
[17] = Growth inhibition of human TK10 cells at 10 uM after 48 hrs by sulforhodamine B assay; conditions: TK-10, 48 h, values are per cent of control
SN12C = assay: Growth inhibition of human SN12C cells at 10 uM after 48 hrs by sulforhodamine B assay; conditions: values are per cent of control
[18] = Growth inhibition of human HCT15 cells at 10 uM after 48 hrs by sulforhodamine B assay; conditions: HCT-15, 48 h, values are per cent of control
M14 = assay: Growth inhibition of human M14 cells at 10 uM after 48 hrs by sulforhodamine B assay; conditions: M14, 48 h, values are per cent of control
[19] = Growth inhibition of human RXF393 cells at 10 uM after 48 hrs by sulforhodamine B assay; conditions: RXF 393, 48 h, values are per cent of control
[20] = Growth inhibition of human SF295 cells at 10 uM after 48 hrs by sulforhodamine B assay; conditions: SF-295, 48 h, values are per cent of control
[21] = Growth inhibition of human SNB19 cells at 10 uM after 48 hrs by sulforhodamine B assay; conditions: SNB-19, 48 h, values are per cent of control
SK-MEL-28 = assay: Growth inhibition of human SK-MEL-28 cells at 10 uM after 48 hrs by sulforhodamine B assay; conditions: SK-MEL-28, 48 h, values are per cent of control
NCI-H522 = assay: Growth inhibition of human NCI-H522 cells at 10 uM after 48 hrs by sulforhodamine B assay; conditions: NCI-H522, 48 h, values are per cent of control
NCI-H460 = assay: Growth inhibition of human NCI-H460 cells at 10 uM after 48 hrs by sulforhodamine B assay; conditions: NCI-H460, 48 h, values are per cent of control
[22] = Growth inhibition of human HCT116 cells at 10 uM after 48 hrs by sulforhodamine B assay; conditions: HCT-116, 48 h, values are per cent of control

| SMILES | growth, % of control at 10 µM [1] [%] | growth, % of control at 10 µM (786-0) [%] | growth, % of control at 10 µM (SK-MEL-5) [%] | growth, % of control at 10 µM [2] [%] | growth, % of control at 10 µM [3] [%] | growth, % of control at 10 µM [4] [%] | growth, % of control at 10 µM [5] [%] | growth, % of control at 10 µM [6] [%] | growth, % of control at 10 µM [7] [%] | growth, % of control at 10 µM [8] [%] | growth, % of control at 10 µM [9] [%] | growth, % of control at 10 µM (NCI-H226) [%] | growth, % of control at 10 µM [10] [%] | growth, % of control at 10 µM (SR) [%] | growth, % of control at 10 µM (MDA-MB-435) [%] | growth, % of control at 10 µM (T47D) [%] | growth, % of control at 10 µM (NCI-H23) [%] | growth, % of control at 10 µM (NCI-H322M) [%] | growth, % of control at 10 µM [11] [%] | growth, % of control at 10 µM [12] [%] | also measured |
| --- | --- | --- | --- | --- | --- | --- | --- | --- | --- | --- | --- | --- | --- | --- | --- | --- | --- | --- | --- | --- | --- |
| COc1ccc(/C=C(\C#N)c2ccc3c(c2)OCO3)c2ccccc12 | 10.5 | 40.2 | 19.1 | 29 | 26.6 | 25.1 | 7.6 | 14.9 | 36.3 | 30.8 | 35.2 | 38.5 | -42.9 | 18.4 | -26.3 | 38.2 | 49.9 | 34.3 | 34 | -14.1 | growth, % of control at 10 µM (SK-MEL-2): 13.1%; growth, % of control at 10 µM (ACHN): 44.7%; growth, % of control at 10 µM [13]: 44.4%; growth, % of control at 10 µM (U-251): 18.7%; growth, % of control at 10 µM [14]: 49.7%; growth, % of control at 10 µM [15]: 10.6%; growth, % of control at 10 µM [16]: 45.7%; growth, % of control at 10 µM (MDA-MB-468): -14.5%; growth, % of control at 10 µM (A549): 31.7%; growth, % of control at 10 µM [17]: 43.8%; growth, % of control at 10 µM (SN12C): 38.6%; growth, % of control at 10 µM [18]: 21.4%; growth, % of control at 10 µM (M14): 16.2%; growth, % of control at 10 µM [19]: -17.7%; growth, % of control at 10 µM [20]: 5.6%; growth, % of control at 10 µM [21]: 36.1%; growth, % of control at 10 µM (SK-MEL-28): 43.6%; growth, % of control at 10 µM (NCI-H522): 1.4%; growth, % of control at 10 µM (NCI-H460): 13.2%; growth, % of control at 10 µM [22]: 21.1% |
| COc1cc(/C=C(\C#N)c2ccc3c(c2)OCO3)cc(OC)c1 | 99.7 | 94.5 | 97.3 | 92.3 | 86.4 | 86.4 | 97.7 | 94.4 | 87.1 | 96.5 | 103 | 99.8 | 104 | 82 | 100 | 75.6 | 96.6 | 89.5 | 95.5 | 115 | growth, % of control at 10 µM (SK-MEL-2): 94.4%; growth, % of control at 10 µM (ACHN): 108%; growth, % of control at 10 µM [13]: 92.3%; growth, % of control at 10 µM (U-251): 93.7%; growth, % of control at 10 µM [14]: 82.9%; growth, % of control at 10 µM [15]: 102%; growth, % of control at 10 µM [16]: 102%; growth, % of control at 10 µM (MDA-MB-468): 98.7%; growth, % of control at 10 µM (A549): 84.6%; growth, % of control at 10 µM [17]: 95.6%; growth, % of control at 10 µM (SN12C): 95.3%; growth, % of control at 10 µM [18]: 102%; growth, % of control at 10 µM (M14): 99.5%; growth, % of control at 10 µM [19]: 106%; growth, % of control at 10 µM [20]: 99.2%; growth, % of control at 10 µM [21]: 101%; growth, % of control at 10 µM (SK-MEL-28): 106%; growth, % of control at 10 µM (NCI-H522): 87.9%; growth, % of control at 10 µM (NCI-H460): 102%; growth, % of control at 10 µM [22]: 96.3% |
